Experimental findings from patent publication US6875761B2 (Eisai Co., Ltd., priority 1997, dated 2005) are described below.

Counter-ions that a name gives are not always drawn.

As usually defined, the melting point is the temperature, or range, at which the solid turns liquid. Take `CCN1CCN(c2nc(-c3ccc(N4CCC(OC)CC4)nc3)cc3ccccc23)CC1` (as salt: hydrochloride) [Example 153, 1-(4-ethylpiperazin-1-yl)-3-[2-(4-methoxypiperidin-1-yl)pyridin-5-yl]isoquinoline trihydrochloride]: the melting point was determined as 170 °C. Then `CCN1CCN(c2nc(-c3ccc(SC)cc3)cc3ccccc23)CC1` (as salt: hydrochloride) [Example 341, 1-(4-ethylpiperazin-1-yl)-3-(4-methylthiophenyl)isoquinoline dihdyrochloride], with 215 to 218 °C (dec.); and `CCN1CCN(c2nc(C(O)c3ccc(OC)cc3)cc3ccccc23)CC1` (stereo not drawn) (as salt: oxalate) [Example 104, 3-[α-Hydroxy-(4-methoxybenzyl)]-1-(4-ethylpiperazin-1-yl)isoquinoline Oxalate], with 95 to 97 °C; and `CCN1CCN(c2nc(-c3ccc(OCCO)c(C(C)C)c3)cc3ccccc23)CC1` (as salt: hydrochloride) [Example 41, 3-[3-isopropyl-4-(2-hydroxyethoxy)phenyl]-1-(4-ethylpiperazin-1-yl)isoquinoline hydrochloride], with 248 to 250 °C (dec.). The figure for `CCN1CCN(c2nc(/C=C(\C)c3ccc(N4CCOCC4)cc3)cc3ccccc23)CC1` (as salt: oxalate) [Example 206, 3-{(E)-2-Methyl-2-[4-(4-Morpholinyl)Phenyl]Ethenyl}-1-(4-Ethylpiperazin-1-Yl)Isoquinoline Oxalate] is 266 to 267 °C; for `CCN1CCN(c2nc(-c3ccc(OCCCC#N)cc3)cc3ccccc23)CC1` (as salt: hydrochloride) [Example 53, 3-[4-(3-Cyanopropoxy)Phenyl]-1-(4-Ethylpiperazin-1-Yl)Isoquinoline Hydrochloride] it is 144 to 146 °C; for `CCN1CCN(c2nc(-c3ccc(CC(C)(C)CO)cc3)cc3ccsc23)CC1` (as salt: hydrochloride) [Example 442, 7-(4-ethylpiperazin-1-yl)-5-[4-(3-hydroxy-2,2-dimethylpropyl)phenyl]thieno[2,3-c]pyridine dihydrochloride] it is 113 to 114 °C.

Take `CCN1CCN(c2nc(-c3ccc(OC)c(CCCO)c3)cc3ccccc23)CC1` (as salt: hydrochloride) [Example 34, 3-[3-(3-hydroxypropyl)-4-methoxyphenyl]-1-(4-ethylpiperazin-1-yl)isoquinoline hydrochloride]: the melting point is 157 to 160 °C.

In the case of `CCN1CCN(c2nc(-c3ccc(OC)cc3)c(Cl)c3ccccc23)CC1` (as salt: hydrochloride), the melting point was 200.5 to 201.5 °C (dec.). The figure for `CCN1CCN(c2nc(-c3ccc(S(C)(=O)=O)cc3)cc3ccsc23)CC1` (as salt: hydrochloride) [Example 445, 7-(4-ethylpiperazin-1-yl)-5-(4-methanesulfonylphenyl)thieno)[2,3-c]pyridine dihydrochloride] is 222.5 to 225 °C (dec.); for `CCN1CCN(c2nc(-c3ccc(CCC(C)O)cc3)cc3ccsc23)CC1` (stereo not shown) (as salt: hydrochloride) [Example 440, 7-(4-ethylpiperazin-1-yl)-5-[4-(3-hydroxybutyl)phenyl]thieno[2,3-c]pyridine dihydrochloride] it is 110.5 to 112 °C. Molecule `CCN1CCN(c2nc(/C=C/c3cccc(N4CCOCC4)c3)cc3ccccc23)CC1` (as salt: oxalate) [Example 204, 3-{(E)-2-[3-(4-Morpholinyl)Phenyl]Ethenyl}-1-(4-Ethylpiperazin-1-Yl)Isoquinoline Oxalate] returned a melting point of 180 to 182 °C. The figure for `CCN1CCN(c2nc(-c3ccc([C@H]4CC[C@@H](O)CC4)cc3)cc3ccccc23)CC1` (as salt: hydrochloride) [Example 397, 1-(4-Ethylpiperazin-1-yl)-3-[4-(cis-4-Hydroxycyclohexyl)Phenyl]Isoquinoline Dihydrochloride] is 152 to 153 °C. Then `CCCCNC(=O)Cc1ccc(-c2cc3ccccc3c(N3CCN(CC)CC3)n2)cc1` (as salt: hydrochloride) [Example 89, 3-(4-Butylaminocarbonylmethylphenyl)-1-(4-ethylpiperazin-1-yl)isoquinoline Hydrochloride], with 133 to 136 °C; and `CCN1CCN(c2nc(-c3ccc([C@@H]4C[C@H](O)CCO4)cc3)cc3ccccc23)CC1` (relative stereo) (as salt: hydrochloride) [Example 401, 1-(4-Ethylpiperazin-1-yl)-3-[4-(cis-4-Hydroxytetrahydropyran-2-yl)Phenyl]Isoquinoline Dihydrochloride], with 148 to 149.5 °C. Take `CCCN(C)S(=O)(=O)c1ccc(-c2cc3ccccc3c(N3CCN(CC)CC3)n2)cc1` (as salt: hydrochloride) [Example 358, 1-(4-ethylpiperazin-1-yl)-3-[4-(N-methyl-N-propylsulfamoyl)phenyl]isoquinoline dihydrochloride]: the melting point was 199.5 to 200.5 °C (dec.). The figure for `CCN1CCN(c2nc(-c3ccc(OCCF)cc3)cc3ccccc23)CC1` (as salt: hydrochloride) [Example 45, 1-(4-Ethylpiperazin-1-Yl)-3-[4-(2-Fluoroethoxy)Phenyl]Isoquinoline Dihydrochloride] is 223 to 224 °C (dec.).

`CCN1CCN(c2nc(-c3ccc(C(C)O)cc3)cc3ccccc23)CC1` (stereo not shown) (as salt: hydrochloride) [Example 348, 1-(4-ethylpiperazin-1-yl)-3-[4-(1-hydroxyethyl)phenyl]isoquinoline dihydrochloride] yielded a melting point of 135.5 to 136 °C. Then `CCN1CCN(c2nc(C(C)c3ccc(OC)cc3)cc3ccccc23)CC1` (stereo not drawn) (as salt: oxalate) [Example 102, 3-[α-Methyl-(4-methoxybenzyl)]-1-(4-ethylpiperazin-1-yl)isoquinoline Oxalate], with 86 to 88 °C.

With `CCN1CCN(c2nc(C(=O)Nc3ccccc3)cc3ccccc23)CC1` (as salt: hydrochloride) [Example 218, 1-(ethylpiperazin-4-yl)-N-phenyl-3-isoquinolinecarboxamide dihydrochloride], the melting point was 260 °C (dec.). Consider `CCN1CCN(c2nc(C3CCc4c(OC)cccc43)cc3ccccc23)CC1` (stereo not shown) (as salt: hydrochloride) [Example 113, 3-(4-Methoxyindan-1-yl)-1-(4-ethylpiperazin-1-yl)isoquinoline Hydrochloride], for which the melting point was 108 to 110 °C.

`CCN1CCN(c2nc(C3CCc4ccc(OC)cc43)cc3ccccc23)CC1` (stereo not shown) (as salt: oxalate) [Example 114, 3-(6-Methoxyindan-1-yl)-1-(4-ethylpiperazin-1-yl)isoquinoline Oxalate] showed a melting point of 122 to 124 °C. `CCN1CCN(c2nc(C3=CCCc4c(OC)cccc43)cc3ccccc23)CC1` (as salt: oxalate) had a melting point of 136 to 139 °C.

On to `CCN1CCN(c2nc(-c3ccc(CO)cc3)cc3ccccc23)CC1` (as salt: hydrochloride) [Example 17, 1-(4-ethylpiperazin-1-yl)-3-(4-hydroxymethylphenyl)isoquinoline hydrochloride], for which the melting point lay in the range of 145 to 147 °C. In turn, `CCN1CCN(c2nc(-c3ccc(CCCO)cc3)cc3cccnc23)CC1` (as salt: hydrochloride) [Example 247, 8-(1-ethylpiperazin-4-yl)-6-[4-(3-hydroxypropyl)phenyl]-1,7-naphthyridine Dihydrochloride] displayed a melting point of 119 to 122 °C. The figure for `CCN1CCN(c2nc(NC(=O)c3ccccc3)cc3ccccc23)CC1` (as salt: hydrochloride) [Example 421, 3-benzamide-1-(4-ethylpiperazin-1-yl)isoquinoline] is 160 to 162 °C. Regarding `CCN1CCN(c2nc(-c3ccc(S(=O)(=O)CCCF)cc3)cc3ccccc23)CC1` (as salt: hydrochloride) [Example 355, 1-(4-ethylpiperazin-1-yl)-3-[4-(3-fluoropropyl)sulfonylphenyl]isoquinoline dihydrochloride], the melting point is 224 to 225 °C (dec.). The figure for `CCN1CCN(c2nc(-c3ccc([C@@H]4C[C@@H](O)CCO4)cc3)cc3ccccc23)CC1` (relative stereo) (as salt: hydrochloride) [Example 402, 1-(4-Ethylpiperazin-1-yl)-3-[4-(trans-4-Hydroxytetrahydropyran-2-yl)Phenyl]Isoquinoline Dihydrochloride] is 151 to 152.5 °C (dec.); for `CN1CCN(c2nc(-c3ccc(OCCO)cc3)cc3ccsc23)CC1` (as salt: hydrochloride) [Example 253, 5-[4-(2-hydroxyethoxy)phenyl]-7-(4-methylpiperazin-1-yl)thieno[2,3-c]pyridine Hydrochloride] it is 141 to 143 °C; for `CCN1CCN(c2nc(C#Cc3ncccc3OCCO)cc3ccccc23)CC1` (as salt: hydrochloride) [Example 188, 1-(1-Ethylpiperazin-4-Yl)-3-[3-(2-Hydroxyethoxy)-2-Pyridyl]Ethynylisoquinoline] it is 153 to 159 °C.

In turn, `CCN1CCN(c2nc(-c3ccc(CCCO)cc3)cc3ccsc23)CC1` (as salt: hydrochloride) [Example 432, 7-(4-ethylpiperazin-1-yl)-5-[4-(3-hydroxypropyl)phenyl]thieno[2,3-c]pyridine hydrochloride] yielded a melting point of 112 to 113 °C. Then `CCN1CCN(c2nc(C#CCc3ccccc3)cc3ccccc23)CC1` (as salt: oxalate) [Example 181, 1-(1-Ethylpiperazin-4-Yl)-3-(3-Phenyl-1-Propynyl)Isoquinoline Oxalate], with 180 to 183 °C; and `CCN1CCN(c2nc(-c3ccc(N(C)C)cc3)cc3ccccc23)CC1` (as salt: hydrochloride) [Example 66, 3-[4-(N,N-Dimethylamino)Phenyl]-1-(4-Ethylpiperazin-1-Yl)Isoquinoline Dihydrochloride], with 160 to 162 °C (dec.); and `COc1ccc(-c2cc3ccccc3c(N3CCOCC3)n2)cc1.Cl`, with 137 to 139 °C.
